Results from patent US20050032750A1, “Treating androgen deficiency in female (ADIF)-associated conditions with SARMS” (priority 2003, published 2005).

Columns and labels:
[1] = tested on: ovariectomized (OVX) rat model of postmenopausal bone loss; experiment: Whole body DEXA analysis (BMD, percent fat mass, body weight) in OVX rat model; format: in vivo; conditions: for change in whole body BMD between day 0 and day 120: 120 days; for body weight gain: day 0 to 120
Protocol: (§1) One hundred twenty female Sprague-Dawley rats were purchased from Harlan (Indiapolis, Ind.). The animals were housed three per cage and were allowed free access to tap water and commercial rat chow (Harlan Teklad 22/5 rodent diet—8640). During the course of the study, the animals were maintained on a 12 hr light:dark cycle. This study was reviewed and approved by the Institutional Laboratory Care and Use Committee of The Ohio State University. […] Dosing solutions were prepared daily by dissolving drug in dimethyl sulfoxide (DMSO) and diluting in polyethylene glycol 300 (PEG 300). All doses were administered for 120 days via daily subcutaneous injections in a volume of 0.20 ml.
Total body bone mineral density (BMD), percent fat mass (FM), and body weight (BW) were determined by dual energy x-ray absorptiometry (DEXA) (GE, Lunar Prodigy™) using the small animal software (Lunar enCORE, version 6.60.041) on days 0 and 120. Total body data was obtained by selecting an area encompassing the entire animal as the region of interest during data processing. For scanning, the animals were anesthetized with ketariine:xylazine (87:13 mg/kg).
(§2) The results were analyzed using Tukey's honestly significant difference method in a one-way analysis of variance and expressed as mean ±S.E.M. Significance was reported when P<0.05. SPSS 11.5.0 (Chicago, Ill.) was used to analyze the results.

[2] = tested on: ovariectomized (OVX) rat model of postmenopausal bone loss; experiment: Femoral three point bending test (maximum load); format: in vivo; conditions: OVX rats, 120 days
Protocol: as §1
(§3) The right femurs from groups 5, 6, 7, 9, 10, and 12 were sent to Skeletech, Inc. (Bothell, Wash.) for pQCT analysis and biomechanical testing. The femur was subject to pQCT scan using a Stratec XCT RM and associated software (Stratec Medizintechnik GmbH, Pforzheim, Germany. Software version 5.40 C). The femur was scanned at the mid-shaft. The position was verified using scout views and scan results from one 0.5 mm slice perpendicular to the long axis of the femur. Cortical bone mineral content was analyzed. After pQCT analysis, the de-fleshed whole femur was used in the three point bending test. The femur was placed on the lower supports of a three point bending fixture with anterior side facing downward in an Instron Mechanical Testing Machine (Instron 4465 retrofitted to 5500). The upper loading device was aligned to the center of the femoral shaft. The load was applied at a constant displacement rate of 6 mm/min until the femur broke. The location of maximal load was selected manually and values were calculated by machine's software (Merlin II, Instron). Maximum load was measured directly by the mechanical testing machine. The length between two supports was set to 14mm.
The results were analyzed using Tukey's honestly significant difference method in a one-way analysis of variance and expressed as mean ±S.E.M. Significance was reported when P<0.05. […]

castrated male rats = experiment: Androgenic and anabolic effects in castrated male rats; format: in vivo, rat
[3] = tested on: ovariectomized (OVX) rat model of postmenopausal bone loss; experiment: Ex vivo DEXA analysis of L2-L4 vertebrae BMD; format: in vivo; conditions: 120 days
Protocol: as §1
Immediately following the whole body DEXA scan on day 120, groups 1-11 were sacrificed, and the lumbar vertebrae, femurs, and tibia were excised and cleared of soft tissue. Group 12 was sacrificed at day 210. The excised bones were scanned through a 3 in deep room temperature water bath, to simulate soft tissue and prevent beam-hardening effects. The L2-L4 vertebrae were selected as a region of interest and analyzed for BMD by DEXA.
as §2

[4] = tested on: ovariectomized (OVX) rat model of postmenopausal bone loss; experiment: Femoral pQCT analysis of mid-shaft cortical content; format: in vivo; conditions: 120 days
Protocol: as §1, §3, §2

[5] = tested on: ovariectomized female rats; experiment: Bone mineral content by whole body DEXA after ovariectomy (Example 2); format: in vivo, rat; conditions: OVX female rats, 30 day treatment period
[6] = tested on: myosin heavy chain (MHC) IIb mRNA; experiment: Myosin heavy chain (MHC) IIb mRNA expression in masseter muscle by RT-PCR; format: in vivo, rat; conditions: intact female rats, untreated control = 100%
Description: MHC is the predominant protein in skeletal muscle encoded by a multigene family expressed in a tissue-specific and developmentally regulated manner. In steady state, MRNA expression usually parallels the pattern of MHC protein expression. Because transcription of MHC MRNA occurs in advance of MHC protein translation, and the increased sensitivity of RT-PCR compared to western blotting, rapid changes in mRNA expression can be detected and used to analyze the subtle dynamic effects of muscle anabolism.
The masseter muscle dissected from untreated intact female rats was set as the control level (representing 100%) of MHC IIb expression (FIG. 1A). Intact female rats treated with androgens were evaluated against the untreated controls for the effect of treatment on MHC IIb from masseter.

Q: For `CC(=O)Nc1ccc(OC[C@](C)(O)C(=O)Nc2ccc([N+](=O)[O-])c(C(F)(F)F)c2)cc1` [Compound VI, S-3-(4-acetylamino-phenoxy)-2-hydroxy-2-methyl-N-(4-nitro-3-trifluoromethyl-phenyl)-propionamide], which “change in whole body BMD between day 0 and day 120” value ([1]; OVX rats, 0.1 mg/day sc) is on record?
A: Its value is “not significantly different from OVX controls”.

Q: And the “percent body fat at day 120” value ([1]; OVX rats, 3.0 mg/day)?
A: The value was “not different from intact controls”.

Q: And the body weight gain ([1]; OVX rats, 3.0 mg/day)?
A: The body weight gain was “gained more weight than the other groups”.

Q: And the “percent fat mass at day 120” value ([1]; OVX rats, 0.1-3.0 mg/day)?
A: The value was “dose dependent decrease in percent fat mass”.

Q: And the body weight gain ([1]; OVX rats, 0.1-3.0 mg/day)?
A: The body weight gain was “dose-dependent trend in body weight gain”.

Q: What about the “change in whole body BMD between day 0 and day 120” value ([1]; OVX rats, doses greater than 0.1 mg/day sc) of the same compound?
A: The value was “prevent the loss of whole body BMD”.

Q: What about the “mean percent fat mass at day 120” value ([1]; intact rats, 1 mg/day) of the same compound?
A: The value was “lower in intact Compound VI treated animals than intact controls”.

Q: What about the “femur biomechanical strength (maximum load)” value ([2]; 1.0 mg/day) of the same compound?
A: The value was “prevent the loss of bone strength”.

Q: And the “femur biomechanical strength (maximum load)” value ([2]; 3.0 mg/day)?
A: Its value is “increase in maximum load”.

Q: And the “prostate restored, % of intact animals” value (castrated male rats)?
A: The value was 34%.

Q: And the “seminal vesicles restored, % of intact animals” value (castrated male rats)?
A: Its value is 28%.

Q: What about the “L2-L4 BMD” value ([3]; OVX rats, 0.5 and 3.0 mg/kg dose groups) of the same compound?
A: The value was “significantly higher BMD than the OVX control group”.

Q: And the “L2-L4 BMD” value ([3]; OVX rats, greater than 0.3 mg/day)?
A: The value was “not significantly different from intact controls”.

Q: What about the “Cortical Content (CC) of mid-shaft femur” value ([4]; OVX rats, 1.0 mg/day) of the same compound?
A: The value was “completely prevent the loss in CC”.

Q: What about the “Cortical Content (CC) of mid-shaft femur” value ([4]; OVX rats, 3.0 mg/day) of the same compound?
A: Its value is “increase the CC in OVX animals above that of intact animals”.

Q: And the “Cortical Content (CC) of mid-shaft femur” value ([4]; intact rats, 1 mg/day)?
A: Its value is “not different from intact controls”.

Q: And the “bone mineral content compared with intact control or placebo-treated groups” value [5]?
A: Its value is “maintained and improved the bone mineral content”.

Q: And the “transcription of MHC type IIb, % of untreated control” value [6]?
A: The value was 137%.

Q: What does the source list for `C[C@]12CCC(=O)C[C@@H]1CC[C@@H]1[C@@H]2CC[C@]2(C)[C@@H](O)CC[C@@H]12` [DHT, dihydrotestosterone, reference compound]?
A: change in whole body BMD between day 0 and day 120 ([1]; OVX rats, DHT 1 mg/day sc): not significantly different from OVX controls; change in whole body BMD between day 0 and day 120 ([1]; intact rats, DHT 1 mg/day sc): prevented the age related increase in BMD; femur biomechanical strength (maximum load) ([2]; DHT 1 mg/day): prevent the loss in bone strength; L2-L4 BMD ([3]; OVX rats, DHT 1 mg/day): only able to partially maintain the L2-L4 BMD; L2-L4 BMD ([3]; intact rats, DHT 1 mg/day): caused a reduction in L2-L4 BMD; Cortical Content (CC) of mid-shaft femur ([4]; OVX rats, DHT 1 mg/day): partially prevented the loss in CC, these results were not significant

Q: How did the “transcription of MHC type IIb, % of untreated control” value [6] turn out when `CCC(=O)O[C@H]1CC[C@H]2[C@@H]3CCC4=CC(=O)CC[C@]4(C)[C@H]3CC[C@]12C` [testosterone propionate, reference compound] was run?
A: The value was 133%.
